Laboratory results published in patent US8808742B2, “Compositions and methods for preparing and using same” (Ardea Biosciences, Inc., priority 2008, dated 2014).
Where two headings read alike, the source gives them in different places.

Legend:
[1] = test system: A375 melanoma tumors; test: A375 melanoma xenograft, tumor growth inhibition / delay; type: in vivo, nu/nu mice
Experimental: (§1) Human tumors were implanted in nu/nu mice. Compound no. 1021 was administered orally for 14 days once tumors were approximately 100 mm^3 in size. Tumor growth inhibition (TGI) was determined after 14 days of treatment as the reduction in the size of tumors in treated groups versus vehicle controls. The time to endpoint (TTE) was calculated as the time for the tumor to reach the specified endpoint volume or the last day of the study, whichever came first. Treatment outcome was determined from percent tumor growth delay (% TGD), defined as the percent increase in median TTE of treated versus vehicle-treated control mice. Animals were also monitored for regression responses. Levels of pERK in tumors and brain were determined by Western blots and correlated with plasma levels of Compound no. […] A number of tumor models were evaluated with different doses and dosing regimens. […] The effect of different dosing regimens was evaluated in A375 xenografts. […]
(§2) Tumor Growth Inhibition for the groups treated with 25 mg/kg Compound no. 1021 were calculated for the indicated tumor xenografts. Tumor Growth Inhibition was measured at the end of once daily dosing for 14 days and calculated according to: […]
Female nu/nu mice were implanted with A375 tumor cells, which were allowed to grow to 100-200 mm^3. […] Tumor Growth Inhibition was measured at the end of once daily dosing for 14 days and calculated according to: […]

[2] = test system: Colo205 colon cancer tumors; test: Colo205 colon tumor xenograft, tumor growth inhibition / delay; type: in vivo, nu/nu mice
Experimental: (§3) Human tumors were implanted in nu/nu mice. Compound no. 1021 was administered orally for 14 days once tumors were approximately 100 mm^3 in size. Tumor growth inhibition (TGI) was determined after 14 days of treatment as the reduction in the size of tumors in treated groups versus vehicle controls. The time to endpoint (TTE) was calculated as the time for the tumor to reach the specified endpoint volume or the last day of the study, whichever came first. Treatment outcome was determined from percent tumor growth delay (% TGD), defined as the percent increase in median TTE of treated versus vehicle-treated control mice. Animals were also monitored for regression responses. Levels of pERK in tumors and brain were determined by Western blots and correlated with plasma levels of Compound no. 1021 for the pharmacodynamic/pharmacokinetic study. A number of tumor models were evaluated with different doses and dosing regimens. […] The effect of different dosing regimens was evaluated in A375 xenografts. Although 100 mg/kg Compound no. […] 1021. […]
as §2

[3] = test system: HT29 colon cancer tumors; test: HT29 colon tumor xenograft, tumor growth inhibition; type: in vivo, nu/nu mice; conditions: oral 25 mg/kg QD
Experimental: as §3, §2

[4] = test system: A431 epidermoid tumors; test: A431 epidermoid tumor xenograft, tumor growth inhibition / delay; type: in vivo, nu/nu mice
Experimental: as §3, §2

[5] = Plasma concentrations in A375 xenograft mice, QD vs BID; type: in vivo, Female nu/nu mice; conditions: oral
[6] = test system: MEK (pERK levels) in Colo205 tumors; test: MEK inhibition (pERK Western blot) in Colo205 xenograft tumors vs plasma concentration; type: in vivo, Female nu/nu mice; conditions: Colo205 xenografts, pharmacodynamic/pharmacokinetic study
Experimental: as §1
(§4) Female nu/nu mice implanted with Colo205 tumor cells were given a single dose of vehicle or Compound no. […] Compound levels were determined in plasma samples and pERK levels were determined in tumor and brain samples collected at 2, 6, 12, and 24 hr post-dose. The pERK levels from Western blots were quantified using the LI-COR Odyssey, normalized to total ERK levels and compared to vehicle-treated levels to determine % MEK inhibition. […]

[7] = test system: brain MEK activity (pERK levels); test: Inhibition of brain MEK activity (pERK Western blot) vs plasma concentration; type: in vivo, Female nu/nu mice; conditions: Colo205 xenograft mice, pharmacodynamic/pharmacokinetic study
Experimental: as §1, §4

[8] = Single-dose capsule administration in human cancer patients, concentration-time profiles; conditions: in vivo, oral, capsules of example 95A
Experimental: Administration of the capsules described in example 95A in Human Cancer Patients.Human cancer patients were administered a single dose of the 1 mg or 10 mg capsule composition described above in example 95A. For a 2 mg dose, patients were given 2×1 mg capsules; for a 4 mg dose, patients were given 4×1 mg capsules; for a 6 mg dose, patients were given 6×1 mg capsules; for a 10 mg dose, patients were given 1×10 mg capsule; for a 20 mg dose, patients were given 2×10 mg capsules.
The concentration-time profiles were monitored and are shown in FIG. 4 and in the table below: […]

[9] = test system: phosphorylated ERK in MDA-MB-231 breast cancer cells; test: Western blotting for phosphorylated ERK in MDA-MB-231 cells (EC50 data); type: cell-based; conditions: Homo sapiens, 0.5 h, 30 min compound, EGF stimulation, read-out: MDA pERK ELISA EC50
Experimental: Effects of compounds in the cell were determined by Western blotting for phosphorylated ERK. MDA-MB-231 breast cancer cells were plated in a 48 well plate at 20,000 cells per well and grown in a 37° humidified CO2 incubator. The following day, the growth media (DMEM+10% fetal bovine serum) was removed and replaced with starve media (DMEM+0.1% fetal bovine serum). Cells were incubated in the starve media for sixteen hours and then treated with a range of compound concentrations for thirty minutes. After incubation with compound, cells were stimulated with 100 ng/mlEGF for five minutes. The cells were then lysed and analyzed by Western blot using a monoclonal antibody raised to phosphorylated ERK. The signal was amplified using a secondary antibody conjugated to a near-IR dye and detected on a Licor Odyssey scanner.

[10] = column 2, no head, 2nd regimen of b975: 25 mg/kg BID

In the case of `COc1cc(F)c(F)c(Nc2ccc(I)cc2F)c1NS(=O)(=O)C1(C[C@H](O)CO)CC1` [Compound no. 1021], the “% TGD, significance” value ([1]; 25 or 50 mg/kg QD) is reported as “statistically significant”, the “TGI, significance” value ([1]; oral 25 mg/kg QD) is reported as “Statistically significant” and the “% TGD, significance” value ([2]; 25 or 50 mg/kg QD) is reported as “statistically significant”. The “TGI, significance” value ([2]; oral 25 mg/kg QD) was “Statistically significant”, the “TGI, significance” value [3] was “Statistically significant” and the “% TGD, significance” value ([4]; 25 or 50 mg/kg QD) was “statistically significant”. The “TGI, significance” value ([4]; oral 25 mg/kg QD) was “Statistically significant”, the “Cmin Free Fraction” value ([5]; column 1, no head, 1st regimen of b975: 50 mg/kg QD) was 0.117 ng/mL and the Cmax [5, 10] was 10200 ng/mL. For the same molecule, the “Cmin Free Fraction” value [5, 10] was 2.48 ng/mL, the “Cmin Free Fraction” value ([5]; column 3, no head, 3rd regimen of b975: printed 50 mg/kg QD) was 0.059 ng/mL and the “Cmin Free Fraction” value ([5]; column 4, no head, 4th regimen of b975: 12.5 mg/kg BID) was 0.986 ng/mL. For the same molecule, the “pERK formation in tumors” value [6] was “inhibition of pERK formation”, the “pERK inhibition in brain” value [7] was “minimal inhibition” and the concentration at 12 h ([8]; 2 mg, Dose 2 mg, Day 1, read-out: C12 hr) was 0.0378 ng/mL. The concentration at 12 h ([8]; 2 mg, Dose 2 mg, Day 35, read-out: C12 hr) was 0.0756 ng/mL, the concentration at 12 h ([8]; 4 mg, Dose 4 mg, Day 1, read-out: C12 hr) was 0.134 ng/mL and the concentration at 12 h ([8]; 4 mg, Dose 4 mg, Day 35, read-out: C12 hr) was 0.31 ng/mL. For the same molecule, the concentration at 12 h ([8]; 10 mg, Dose 10 mg, Day 35, read-out: C12 hr) was 1.01 ng/mL and the concentration at 12 h ([8]; 20 mg, Dose 20 mg, Day 35, read-out: C12 hr) was 2.19 ng/mL.

`O=S(=O)(Nc1ccc(F)c(F)c1Nc1ccc(-c2cn[nH]c2)cc1F)C1CC1` [compound 0497618] gave an EC50 [9] of over 200 nM.

Work on `Cn1cc(-c2ccc(Nc3c(NS(=O)(=O)C4CC4)ccc(F)c3F)c(F)c2)cn1` [compound 0497620] yielded an EC50 [9] of over 200 nM.

Work on `O=S(=O)(Nc1ccc(F)c(F)c1Nc1ccc(-c2cc[nH]n2)cc1F)C1CC1` [compound 0497654] yielded an EC50 [9] of 100 to 200 nM.

Work on `O=S(=O)(Nc1ccc(F)c(F)c1Nc1ccc(-c2ccncc2)cc1F)C1CC1` [compound 0497688] yielded an EC50 [9] of over 200 nM.

In the case of `O=S(=O)(Nc1ccc(F)c(F)c1Nc1ccc(-c2cccnc2)cc1F)C1CC1` [compound 0497689], the EC50 [9] is reported as over 200 nM.

In the case of `O=S(=O)(Nc1ccc(F)c(F)c1Nc1ccc(-c2ccccc2)cc1F)C1CC1` [compound 0497692], the EC50 [9] is reported as over 200 nM.

Work on `CC(=O)c1cccc(-c2ccc(Nc3c(NS(=O)(=O)C4CC4)ccc(F)c3F)c(F)c2)c1` [compound 0499266] yielded an EC50 [9] of over 200 nM.

For `CS(=O)(=O)Nc1ccc(-c2ccc(Nc3c(NS(=O)(=O)C4CC4)ccc(F)c3F)c(F)c2)cc1` [compound 0499271], the EC50 [9] was over 200 nM.

With `O=S(=O)(Nc1ccc(F)c(F)c1Nc1ccc(I)cc1F)c1ccc(-c2nsc(Cl)n2)s1` [compound 0530701] the EC50 [9] was 100 to 200 nM.

`O=S(=O)(Nc1ccc(F)c(F)c1Nc1ccc(I)cc1F)C1CCNCC1` [compound 0561599] showed an EC50 [9] of 15 to 100 nM.

Work on `COC(=O)c1ccc(S(=O)(=O)Nc2ccc(F)c(F)c2Nc2ccc(I)cc2F)n1C` [compound 0561608] yielded an EC50 [9] of 15 to 100 nM.

`COC(=O)c1sccc1S(=O)(=O)Nc1ccc(F)c(F)c1Nc1ccc(I)cc1F` [compound 0620926] showed an EC50 [9] of over 200 nM.

`CNCCS(=O)(=O)Nc1ccc(F)c(F)c1Nc1ccc(I)cc1F` [compound 0621002] showed an EC50 [9] of 15 to 100 nM.

For `CN(C)CCNCCS(=O)(=O)Nc1ccc(F)c(F)c1Nc1ccc(I)cc1F` [compound 0621016], the EC50 [9] was 15 to 100 nM.

For `Cn1cc(S(=O)(=O)Nc2ccc(F)c(F)c2Nc2ccc(I)cc2F)c(C(F)(F)F)n1` [compound 0621026], the EC50 [9] was 100 to 200 nM.

With `CCN(C)CCS(=O)(=O)Nc1ccc(F)c(F)c1Nc1ccc(I)cc1F` [compound 0621029] the EC50 [9] was 100 to 200 nM.
